{"source": "patent US6947791B2", "about": "“Method and apparatus for electrically assisted topical delivery of agents for cosmetic applications” (Genetronics, Inc., priority 1998, dated 2005)", "origin": "cited, not measured here", "system": "human dermal fibroblasts", "details": "for MTT50 (amount required to kill 50% of the cells in cell culture): pH 7.5", "note": "Read-outs that look alike come from different tables or passages of the source."}
{"smiles": "O=C1O[C@H]([C@@H](O)CO)C([O-])=C1OP(=O)([O-])[O-].O=C1O[C@H]([C@@H](O)CO)C([O-])=C1OP(=O)([O-])[O-].[Mg+2].[Mg+2].[Mg+2]", "note": "[MAP]", "values": [{"measurement": "MTT50 (amount required to kill 50% of the cells in cell culture)", "setting": "fibroblasts from person one", "result": "75,000 ppm"}, {"measurement": "MTT50 (amount required to kill 50% of the cells in cell culture)", "setting": "fibroblasts from person two", "result": "higher than 100,000 ppm"}, {"measurement": "cytotoxicity compared to L-ascorbic acid", "setting": "fibroblasts of all ages", "result": "significantly lower cytotoxicity"}]}
